This assay relates to P388 leukemia ip, CD2F1 mice, survival T/C. Put plainly: NCI In Vivo Anticancer Drug Screen. Data for tumor model P388 Leukemia (intraperitoneal) in CD2F1 (CDF1) mice. The conditions noted are these: endpoint: median survival time, higher = longer survival. The method in brief: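 Mice carrying the transplanted tumor received test compound or vehicle. Survival was recorded in each group, and the value is the treated-group measurement divided by that of the vehicle-treated control group.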

The mark [1] stands for this setting: dose: 25.0 mg/kg/injection, schedule: Q01DX005 (ip), vehicle: Klucel (hydroxypropylcellulose) (HPC).
The mark [2] stands for this setting: dose: 50.0 mg/kg/injection, schedule: Q01DX005 (ip), vehicle: Klucel (hydroxypropylcellulose) (HPC).
The mark [3] stands for this setting: dose: 50.0 mg/kg/injection, schedule: Q01DX009 (ip), vehicle: Klucel (hydroxypropylcellulose) (HPC).
Where [4] appears, read: dose: 100.0 mg/kg/injection, schedule: Q01DX009 (ip), vehicle: Klucel (hydroxypropylcellulose) (HPC).
[5] abbreviates: dose: 60.0 mg/kg/injection, schedule: Q01DX005 (ip), vehicle: saline with Tween-80.
The mark [6] stands for this setting: dose: 120.0 mg/kg/injection, schedule: Q01DX005 (ip), vehicle: saline with Tween-80.
Setting [7] is: dose: 240.0 mg/kg/injection, schedule: Q01DX005 (ip), vehicle: saline with Tween-80.
Where [8] appears, read: dose: 200.0 mg/kg/injection, schedule: Q01DX009 (ip), vehicle: saline with Tween-80.
[9] abbreviates: dose: 30.0 mg/kg/injection, schedule: Q01DX005 (ip), vehicle: Klucel (hydroxypropylcellulose) (HPC).
[10] abbreviates: dose: 60.0 mg/kg/injection, schedule: Q01DX005 (ip), vehicle: Klucel (hydroxypropylcellulose) (HPC).
Setting [11] is: dose: 120.0 mg/kg/injection, schedule: Q01DX005 (ip), vehicle: Klucel (hydroxypropylcellulose) (HPC).
[12] abbreviates: dose: 100.0 mg/kg/injection, schedule: Q01DX005 (ip), vehicle: Klucel (hydroxypropylcellulose) (HPC).
[13] abbreviates: dose: 200.0 mg/kg/injection, schedule: Q01DX005 (ip), vehicle: Klucel (hydroxypropylcellulose) (HPC).

Values joined by “and” are separate entries in the source; they are usually repeats but may differ in a detail not shown here. Identical values can stand only once. Toxic doses and inconclusive results are not listed.

For the compound `CCN(CC)c1cc(C(=O)O)cc(N(CC)CC)n1`, the T/C is 104 % of control (dose: 6.25 mg/kg/injection, schedule: Q01DX005 (ip), vehicle: sodium bicarbonate); 98 % of control and 100 % of control (dose: 12.5 mg/kg/injection, schedule: Q01DX005 (ip), vehicle: Klucel (hydroxypropylcellulose) (HPC)); 114 % of control (dose: 12.5 mg/kg/injection, schedule: Q01DX005 (ip), vehicle: sodium bicarbonate); 98 % of control and 106 % of control under setting [1]; 120 % of control (dose: 25.0 mg/kg/injection, schedule: Q01DX005 (ip), vehicle: sodium bicarbonate); 100 % of control and 120 % of control and 123 % of control under setting [2]. For the same compound, the T/C (dose: 50.0 mg/kg/injection, schedule: Q01DX005 (ip), vehicle: sodium bicarbonate) was 121 % of control.

For the compound `O=C1N/C(=N/OCc2ccccc2)C(F)C(NOCc2ccccc2)N1` (configuration not stated), the T/C reads like this: under setting [3], 96 % of control; under setting [4], 101 % of control; (dose: 200.0 mg/kg/injection, schedule: Q01DX009 (ip), vehicle: Klucel (hydroxypropylcellulose) (HPC)) 97 % of control.

As to `c1ccc2nc(C[n+]3cccc4ccccc43)ccc2c1`, the T/C (dose: 3.12 mg/kg/injection, schedule: Q01DX005 (ip), vehicle: saline) is 105 % of control; the T/C (dose: 6.25 mg/kg/injection, schedule: Q01DX005 (ip), vehicle: saline) was 106 % of control; the T/C (dose: 12.5 mg/kg/injection, schedule: Q01DX005 (ip), vehicle: saline) is 109 % of control.

On to `Nc1ncncc1C(C1=C(O)COC1=O)C1=C(O)COC1=O`, for which the T/C is, setting by setting: under setting [5], 98 % of control; under setting [6], 100 % of control; under setting [7], 98 % of control.

Turning to `[Br][Sn]([Br])([S]c1ccccn1)[S]c1ccccn1`, the T/C by setting is: (dose: 12.5 mg/kg/injection, schedule: Q01DX009 (ip), vehicle: saline with Tween-80) 111 % of control; (dose: 25.0 mg/kg/injection, schedule: Q01DX009 (ip), vehicle: saline with Tween-80) 103 % of control; (dose: 50.0 mg/kg/injection, schedule: Q01DX009 (ip), vehicle: saline with Tween-80) 100 % of control and 95 % of control; under setting [8], 89 % of control.

Consider `c1ccc(-c2cc3cc4c(cc3[nH]2)Sc2ccccc2O4)cc1`, for which the T/C (dose: 110.0 mg/kg/injection, schedule: Q01DX001 (ip), vehicle: Klucel (hydroxypropylcellulose) (HPC)) was 97 % of control; the T/C (dose: 220.0 mg/kg/injection, schedule: Q01DX001 (ip), vehicle: Klucel (hydroxypropylcellulose) (HPC)) is 101 % of control; the T/C (dose: 440.0 mg/kg/injection, schedule: Q01DX001 (ip), vehicle: Klucel (hydroxypropylcellulose) (HPC)) was 99 % of control.

On to `CC1=C(/C=C/Cl)CC(Cl)C(C)(Cl)C1` (configuration not stated), for which the T/C reads like this: (dose: 2.5 mg/kg/injection, schedule: Q01DX009 (ip), vehicle: Klucel (hydroxypropylcellulose) (HPC)) 102 % of control; (dose: 5.0 mg/kg/injection, schedule: Q01DX009 (ip), vehicle: Klucel (hydroxypropylcellulose) (HPC)) 102 % of control; (dose: 10.0 mg/kg/injection, schedule: Q01DX009 (ip), vehicle: Klucel (hydroxypropylcellulose) (HPC)) 93 % of control; (dose: 20.0 mg/kg/injection, schedule: Q01DX009 (ip), vehicle: Klucel (hydroxypropylcellulose) (HPC)) 99 % of control.

Consider `CSc1nc(-c2cccs2)cc(C(F)(F)F)n1`, for which the T/C (dose: 50.0 mg/kg/injection, schedule: Q04DX003 (ip), vehicle: gum acacia) is 105 % of control; the T/C (dose: 100.0 mg/kg/injection, schedule: Q04DX003 (ip), vehicle: gum acacia) was 104 % of control; the T/C (dose: 200.0 mg/kg/injection, schedule: Q04DX003 (ip), vehicle: gum acacia) was 109 % of control; the T/C (dose: 400.0 mg/kg/injection, schedule: Q04DX003 (ip), vehicle: gum acacia) is 96 % of control.

Turning to `O=C(O)C1CCCCC1c1c2ccc(=O)cc-2oc2cc(O)ccc12` (configuration not stated), the T/C is 90 % of control (dose: 100.0 mg/kg/injection, schedule: Q01DX009 (ip), vehicle: saline with Tween-80); 95 % of control under setting [8]; 100 % of control (dose: 400.0 mg/kg/injection, schedule: Q01DX009 (ip), vehicle: saline with Tween-80).

As for `CC(C)c1oc(=O)cc2c1C(O)C1OC(=O)C3(C)C(O)C4OC4C2(C)C13` (configuration not stated), the T/C (dose: 15.0 mg/kg/injection, schedule: Q01DX005 (ip), vehicle: Klucel (hydroxypropylcellulose) (HPC)) was 103 % of control and 105 % of control; the T/C under setting [9] was 103 % of control and 107 % of control; the T/C under setting [10] was 120 % of control; the T/C under setting [11] is 111 % of control.

As to `CCCCCCCCCCCC[N+]1(CCCCCCCCCCCC)CCCC(C)C1` (configuration not stated), where the note is “dose: 0.75 mg/kg/injection, schedule: Q01DX009 (ip), vehicle: Klucel (hydroxypropylcellulose) (HPC)”, the T/C is 113 % of control.

As for `CCO/C([O-])=C(\C=N\S(=O)(=O)c1ccc(C)cc1)[n+]1ccc(C)cc1`, the T/C by setting is: (dose: 100.0 mg/kg/injection, schedule: Q04DX003 (ip), vehicle: Klucel (hydroxypropylcellulose) (HPC)) 103 % of control; (dose: 200.0 mg/kg/injection, schedule: Q04DX003 (ip), vehicle: Klucel (hydroxypropylcellulose) (HPC)) 100 % of control; (dose: 400.0 mg/kg/injection, schedule: Q04DX003 (ip), vehicle: Klucel (hydroxypropylcellulose) (HPC)) 101 % of control.

As to `N#CCS(=O)(=O)c1cccc[n+]1[O-]`, the T/C (dose: 50.0 mg/kg/injection, schedule: Q01DX005 (ip), vehicle: saline with Tween-80) was 107 % of control and 115 % of control; the T/C (dose: 100.0 mg/kg/injection, schedule: Q01DX005 (ip), vehicle: saline with Tween-80) was 118 % of control and 122 % of control; the T/C (dose: 200.0 mg/kg/injection, schedule: Q01DX005 (ip), vehicle: saline with Tween-80) was 123 % of control.

Turning to `CCOC(=O)N1Cc2cc3ncccc3nc2C1`, the T/C is 111 % of control under setting [1] and 100 % of control under setting [2].

`CCOC(=O)c1c(C)[nH]c(-c2ccccc2)c1NS(=O)(=O)c1ccc(NC(C)=O)cc1`: the T/C was 106 % of control under setting [5], 93 % of control under setting [6] and 99 % of control under setting [7].

With `CC(C)(C)NCC(O)COc1nsnc1N1CCOCC1` (configuration not stated), the T/C by setting is: (dose: 50.0 mg/kg/injection, schedule: Q01DX009 (ip), vehicle: water) 103 % of control; (dose: 100.0 mg/kg/injection, schedule: Q01DX009 (ip), vehicle: water) 108 % of control; (dose: 200.0 mg/kg/injection, schedule: Q01DX009 (ip), vehicle: water) 111 % of control.

For `NNC(=O)CNc1ccccc1Br`, the T/C under setting [10] is 97 % of control and the T/C under setting [11] was 98 % of control.

In the case of `COc1cc(N)c(C)c2c(C)ccnc12`, the T/C under setting [9] was 106 % of control; the T/C under setting [10] is 92 % of control and 97 % of control.

For the compound `CCNc1nncs1`, the T/C is 113 % of control (dose: 25.0 mg/kg/injection, schedule: Q01DX009 (ip), vehicle: saline); 161 % of control (dose: 100.0 mg/kg/injection, schedule: Q01DX009 (ip), vehicle: saline); 162 % of control (dose: 125.0 mg/kg/injection, schedule: Q01DX009 (ip), vehicle: saline).

For the compound `CC(=O)N(C)c1ccc(N)c2c1C(=O)c1ccccc1C2=O`, the T/C by setting is: under setting [2], 106 % of control; under setting [12], 94 % of control; under setting [13], 106 % of control.

For the compound `CC(C)CCN=Cc1ccccc1O.CC(C)CCN=Cc1ccccc1O.[Zn]`, the T/C runs as follows: under setting [3], 98 % of control; under setting [4], 104 % of control.

Turning to `C=C1C(=O)OC2C3[C@@]4(C)O[C@H]4[C@H]4O[C@@]34[C@](C)(O)CC(OC(C)=O)[C@@H]12` (some centres not stated), the T/C was 104 % of control (dose: 1687.5 micrograms/kg/injection, schedule: Q01DX005 (ip), vehicle: Klucel (hydroxypropylcellulose) (HPC)); 108 % of control (dose: 3375.0 micrograms/kg/injection, schedule: Q01DX005 (ip), vehicle: Klucel (hydroxypropylcellulose) (HPC)); 100 % of control (dose: 6750.0 micrograms/kg/injection, schedule: Q01DX005 (ip), vehicle: Klucel (hydroxypropylcellulose) (HPC)); 106 % of control (dose: 13500.0 micrograms/kg/injection, schedule: Q01DX005 (ip), vehicle: Klucel (hydroxypropylcellulose) (HPC)).

As for `O=C1NC(=O)C(=Cc2ccc([N+](=O)[O-])cc2)C(=O)N1`, the T/C under setting [2] is 107 % of control, the T/C under setting [12] was 99 % of control and the T/C under setting [13] is 104 % of control.

For the origin of these results see PubChem BioAssay AID330 (DTP/NCI, 2004).
